Assay results from PMC10734772 (Turkish Journal of Chemistry, 2021).

Experiments:
Type in all cases: cell-based
[1] = MTT assay, Hek293T non-leukemic control cells; settings: human, read-out: Viability rate
Molt-4 = test: MTT assay, Molt-4 cells
K562 = test: MTT assay, K562 cells; settings: Homo sapiens, 24 h
Method: K562, Jurkat and Molt-4 cell lines were seeded as 4x10^5/ml, Reh and Nalm-6 cell lines were seeded 5x10^5/ml, Hek293T cell line was seed as 2x10^5/ml.
MTT assay is a 3-day test. On the first day, cell count was performed in Bio Rad TC-20 device with the help of trypan blue, each cell line was prepared by diluting to the specified concentrations and seeded in a 96-well plate as 100μL to each well and incubated for 1 day.
On the second day, stock solutions were subsequently diluted to various concentrations (0.3–200 μM) with related medium prior to experiments. Specified concentrations of the compounds were seeded in a 96-well plate as 100μL to each well and incubated for 24 h.
After incubation (on the third day), to precipitate leukemia cells, the cell plate was centrifuged at 1500 rpm for 5 min. […] The 50 μl of supernatant was discarded from each well and 100 μl of DMSO was added to dissolve the formazan. Plates were shaken for 45 min to dissolve the dye. Then the optical density of each well was measured by using Thermo VarioSkan Flush Multimode Reader Quantum ST5-1100 at 570 nm wavelength.
Subsequently, viability rate of the cells at each concentration, as percentage, was determined by following formula (1):
Viability rate (%)=100-[(OD(control)-OD(sample))/OD(control)×100].OD=Optical Density
The IC50 values were calculated by using GraphPad Prism. All the data presented as the mean of 6 replicates. […] Statistical analysis was performed using dose-response inhibition, log(inhibitor) vs response-variable slope, least squares (ordinary) fit.

[2] = tested on: K562, Nalm-6, Molt-4, Reh, Jurkat, Hek293T cell lines; test: MTT assay, overall judgement over all cell lines; settings: overall judgement in words; for 6 and 10: on all cell lines, except Reh
Procedure, shortened: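 MTT viability assay run across a range of compound concentrations in leukemic lines, BCR-ABL positive K562 and BCR-ABL negative Nalm-6, Molt-4, Reh, Jurkat, plus non-leukemic Hek293T. Viability rate calculated per concentration.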

Nalm-6 = test: MTT assay, Nalm-6 cells; settings: Homo sapiens, 24 h
Jurkat = test: MTT assay, Jurkat cells; settings: Homo sapiens, 24 h, read-out: Viability rate
Reh = test: MTT assay, Reh cells; settings: Homo sapiens, 24 h, read-out: Viability rate

COc1ccc(CN2CCN(Cc3ccc(C(=O)Nc4ccc(C)c(Nc5cc(C)ccn5)c4)cc3)CC2)c(OC)c1OC [Compound 10, N-(4-Methyl-3-((4-methylpyridin-2-yl)amino)phenyl)-4-((4-(2,3,4-trimethoxybenzyl)piperazin-1-yl)methyl)benzamide]
viability at 24 h, 0.3 µM ([1]; Hek293T cells (non-leukemic control cell line), 0.3 μM): 82.8 ± 0.02% | viability at 24 h, 0.5 µM ([1]; Hek293T cells (non-leukemic control cell line), 0.5 μM): 78.2 ± 0.01% | viability at 24 h, 3 µM ([1]; Hek293T cells (non-leukemic control cell line), 3 μM): 80.4 ± 0.02% | viability at 24 h, 5 µM ([1]; Hek293T cells (non-leukemic control cell line), 5 μM): 79.1 ± 0.01% | viability at 24 h, 10 µM ([1]; Hek293T cells (non-leukemic control cell line), 10 μM): 80.2 ± 0.02% | viability at 24 h, 15 µM ([1]; Hek293T cells (non-leukemic control cell line), 15 μM): 81.4 ± 0.01% | viability at 24 h, 20 µM ([1]; Hek293T cells (non-leukemic control cell line), 20 μM): 80.8 ± 0.01% | viability at 24 h, 30 µM ([1]; Hek293T cells (non-leukemic control cell line), 30 μM): 82.2 ± 0.03% | viability at 24 h, 50 µM ([1]; Hek293T cells (non-leukemic control cell line), 50 μM): 79.2 ± 0.03% | viability at 24 h, 70 µM ([1]; Hek293T cells (non-leukemic control cell line), 70 μM): 80.2 ± 0.02% | viability at 24 h, 100 µM ([1]; Hek293T cells (non-leukemic control cell line), 100 μM): 80.7 ± 0.01% | viability at 24 h, 150 µM ([1]; Hek293T cells (non-leukemic control cell line), 150 μM): 80 ± 0.01% | viability at 24 h, 200 µM ([1]; Hek293T cells (non-leukemic control cell line), 200 μM): 81 ± 0.02% | viability at 24 h, 1 µM ([1]; Hek293T cells, 1 μM): 78.1 ± 0.01% | viability at 0.3 µM (Molt-4; Homo sapiens, MOLT-4, 24 h, Molt-4, 0.3 μM, read-out: Viability rate): 87.9 ± 0.03% | viability at 0.5 µM (Molt-4; Homo sapiens, MOLT-4, 24 h, Molt-4, 0.5 μM, read-out: Viability rate): 86.8 ± 0.02% | viability at 1 µM (Molt-4; Homo sapiens, MOLT-4, 24 h, Molt-4, 1 μM, read-out: Viability rate): 87.7 ± 0.01% | viability at 3 µM (Molt-4; Homo sapiens, MOLT-4, 24 h, Molt-4, 3 μM, read-out: Viability rate): 86.5 ± 0.02% | viability at 5 µM (Molt-4; Homo sapiens, MOLT-4, 24 h, Molt-4, 5 μM, read-out: Viability rate): 86.2 ± 0.08% | viability at 10 µM (Molt-4; Homo sapiens, MOLT-4, 24 h, Molt-4, 10 μM, read-out: Viability rate): 89.1 ± 0.03% | viability at 15 µM (Molt-4; Homo sapiens, MOLT-4, 24 h, Molt-4, 15 μM, read-out: Viability rate): 88.1 ± 0.04% | viability at 20 µM (Molt-4; Homo sapiens, MOLT-4, 24 h, Molt-4, 20 μM, read-out: Viability rate): 77 ± 0.04% | viability at 30 µM (Molt-4; Homo sapiens, MOLT-4, 24 h, Molt-4, 30 μM, read-out: Viability rate): 65.3 ± 0.03% | viability at 50 µM (Molt-4; Homo sapiens, MOLT-4, 24 h, Molt-4, 50 μM, read-out: Viability rate): 52.1 ± 0.03% | viability at 70 µM (Molt-4; Homo sapiens, MOLT-4, 24 h, Molt-4, 70 μM, read-out: Viability rate): 42.8 ± 0.01% | viability at 100 µM (Molt-4; Homo sapiens, MOLT-4, 24 h, Molt-4, 100 μM, read-out: Viability rate): 40.4 ± 0.01% | viability at 150 µM (Molt-4; Homo sapiens, MOLT-4, 24 h, Molt-4, 150 μM, read-out: Viability rate): 40 ± 0.01% | viability at 200 µM (Molt-4; Homo sapiens, MOLT-4, 24 h, Molt-4, 200 μM, read-out: Viability rate): 40.7 ± 0.01% | Viability rate (Molt-4; Molt-4, 200 μM, 24 h, 200 µM): < 50% | viability at 0.3 µM (K562; K562, 0.3 μM, MTT, read-out: Viability rate): 104.1 ± 0.07% | viability at 0.5 µM (K562; K562, 0.5 μM, MTT, read-out: Viability rate): 103.4 ± 0.06% | viability at 1 µM (K562; K562, 1 μM, MTT, read-out: Viability rate): 98.9 ± 0.05% | viability at 3 µM (K562; K562, 3 μM, MTT, read-out: Viability rate): 98.7 ± 0.04% | viability at 5 µM (K562; K562, 5 μM, MTT, read-out: Viability rate): 98.6 ± 0.06% | viability at 10 µM (K562; K562, 10 μM, MTT, read-out: Viability rate): 98.9 ± 0.09% | viability at 15 µM (K562; K562, 15 μM, MTT, read-out: Viability rate): 98.6 ± 0.08% | viability at 20 µM (K562; K562, 20 μM, MTT, read-out: Viability rate): 79.2 ± 0.06% | viability at 30 µM (K562; K562, 30 μM, MTT, read-out: Viability rate): 78.9 ± 0.1% | viability at 50 µM (K562; K562, 50 μM, MTT, read-out: Viability rate): 56.1 ± 0.03% | viability at 70 µM (K562; K562, 70 μM, MTT, read-out: Viability rate): 38.5 ± 0.02% | viability at 100 µM (K562; K562, 100 μM, MTT, read-out: Viability rate): 38.7 ± 0.01% | viability at 150 µM (K562; K562, 150 μM, MTT, read-out: Viability rate): 38.9 ± 0.01% | viability at 200 µM (K562; K562, 200 μM, MTT, read-out: Viability rate): 38.7% | IC50 (K562; K562, MTT, range 0.3–200 μM, six replicates): 35 µM | anticancer activity according to MTT assay results [2]: high anticancer activity | viability at 0.3 µM (Nalm-6; Nalm-6, 0.3 μM, MTT, read-out: Viability rate): 92.7 ± 0.08% | viability at 0.5 µM (Nalm-6; Nalm-6, 0.5 μM, MTT, read-out: Viability rate): 88.6 ± 0.06% | viability at 1 µM (Nalm-6; Nalm-6, 1 μM, MTT, read-out: Viability rate): 87.3 ± 0.07% | viability at 3 µM (Nalm-6; Nalm-6, 3 μM, MTT, read-out: Viability rate): 86.5 ± 0.02% | viability at 5 µM (Nalm-6; Nalm-6, 5 μM, MTT, read-out: Viability rate): 85.5 ± 0.06% | viability at 10 µM (Nalm-6; Nalm-6, 10 μM, MTT, read-out: Viability rate): 84.8 ± 0.08% | viability at 15 µM (Nalm-6; Nalm-6, 15 μM, MTT, read-out: Viability rate): 82.2 ± 0.08% | viability at 20 µM (Nalm-6; Nalm-6, 20 μM, MTT, read-out: Viability rate): 71.9 ± 0.07% | viability at 30 µM (Nalm-6; Nalm-6, 30 μM, MTT, read-out: Viability rate): 54.2 ± 0.07% | viability at 50 µM (Nalm-6; Nalm-6, 50 μM, MTT, read-out: Viability rate): 29.8 ± 0.01% | viability at 70 µM (Nalm-6; Nalm-6, 70 μM, MTT, read-out: Viability rate): 28.8 ± 0.01% | viability at 100 µM (Nalm-6; Nalm-6, 100 μM, MTT, read-out: Viability rate): 28.7 ± 0.01% | viability at 150 µM (Nalm-6; Nalm-6, 150 μM, MTT, read-out: Viability rate): 28.5 ± 0.01% | viability at 200 µM (Nalm-6; Nalm-6, 200 μM, MTT, read-out: Viability rate): 28.7% | IC50 (Nalm-6; Nalm-6, MTT, range 0.3–200 μM, six replicates): 28.7 µM | viability at 0.3 µM (Jurkat; 0.3 μM): 73 ± 0.1% | viability at 0.5 µM (Jurkat; 0.5 μM): 71.7 ± 0.1% | viability at 1 µM (Jurkat; 1 μM): 70.9 ± 0.08% | viability at 3 µM (Jurkat; 3 μM): 69.4 ± 0.03% | viability at 5 µM (Jurkat; 5 μM): 68.7 ± 0.05% | viability at 10 µM (Jurkat; 10 μM): 68.1 ± 0.09% | viability at 15 µM (Jurkat; 15 μM): 67.5 ± 0.07% | viability at 20 µM (Jurkat; 20 μM): 64.1 ± 0.15% | viability at 30 µM (Jurkat; 30 μM): 61.7 ± 0.07% | viability at 50 µM (Jurkat; 50 μM): 61.4 ± 0.05% | viability at 70 µM (Jurkat; 70 μM): 50.5 ± 0.02% | viability at 100 µM (Jurkat; 100 μM): 38.1 ± 0.2% | viability at 150 µM (Jurkat; 150 μM): 35.9 ± 0.12% | viability at 200 µM (Jurkat; 200 μM): 32.5 ± 0.03% | viability at 0.3 µM (Reh; 0.3 μM): 93.4 ± 0.02% | viability at 0.5 µM (Reh; 0.5 μM): 92.4 ± 0.02% | viability at 1 µM (Reh; 1 μM): 92.4 ± 0.01% | viability at 3 µM (Reh; 3 μM): 92.6 ± 0.02% | viability at 5 µM (Reh; 5 μM): 92.8 ± 0.02% | viability at 10 µM (Reh; 10 μM): 92.3 ± 0.03% | viability at 15 µM (Reh; 15 μM): 92.6 ± 0.02% | viability at 20 µM (Reh; 20 μM): 91.8 ± 0.01% | viability at 30 µM (Reh; 30 μM): 65.6 ± 0.02% | viability at 50 µM (Reh; 50 μM): 59.5 ± 0.03% | viability at 70 µM (Reh; 70 μM): 59.1 ± 0.02% | viability at 100 µM (Reh; 100 μM): 59.6 ± 0.03% | viability at 150 µM (Reh; 150 μM): 57.4 ± 0.03% | viability at 200 µM (Reh; 200 μM): 55.2 ± 0.03%
